{"source": "patent EP0531370B1", "about": "“INHIBITION OF VIRAL INFECTION” (priority 1990, dated 1991)", "key": {"[1]": {"system": "retroviral vector pWET-TAC ψ2", "experiment": "Infection of NIH-3T3 cells by retroviral vector pWeT-TAC ψ2, count of G418-resistant colonies", "assay_type": "cell-based", "conditions": "for inhibition at 2000 µM / activity at 2000 µM: 2mM; for activity at 2000 µM / activity at 3000 µM / activity at 1000 µM: read-out: % of control colonies counted; for inhibition of G418-resistant colony formation (in words): concentrations of Table 1 (1mM to 3mM); for inhibition at 3000 µM / activity at 3000 µM: 3mM; for inhibition at 1000 µM / activity at 1000 µM: 1mM"}, "MPSV^28 [2]": {"system": "MPSV^28", "experiment": "Southern hybridisation of genomic DNA of NIH/3T3 cells after infection with MPSV^28", "assay_type": "cell-based, murine myeloproliferative sarcoma virus", "conditions": "2mM, most obvious at 24 and 48 hours after infection"}, "MPSV^28 [3]": {"system": "MPSV^28", "experiment": "Dot-blot analysis of high molecular weight DNA of HL-60 cells after infection with MPSV^28", "assay_type": "cell-based, murine myeloproliferative sarcoma virus", "conditions": "1.5mM, 72 hours after infection", "procedure": "In this case cells were pretreated with 0.4% DMSO and […] polybrene for 24 hours. At the time of infection this medium was removed and fresh medium containing the same concentration of DMSO and polybrene, plus 5 x 10^5 c.f.u. of the vector were added to 10^7 cells either in the presence (+) or absence (-) of the inhibitor (5 x 10^6 cells for each condition). 24 hours after infection the medium was removed and cells were placed in fresh medium containing no DMSO or polybrene. Cells were incubated in this medium for another 48 hours before being harvested (approximately 2 x 10^7 cells with, and 2 x 10^7 without the inhibitor)."}, "monocyte adapted HIV-1": {"system": "monocyte adapted HIV-1", "experiment": "microbe, parasite or virus in culture", "assay_type": "cell-based", "conditions": "for minimal effective concentration: Human immunodeficiency virus 1, Monocyte, 336 h, read-out: Minimum Antiviral Concentration; for Therapeutic Index: PBMC's with M-virus, * partial inhibition only; for virus production (P24 antigen level in supernatant): virus M and PBMC's, Day 14, all concentrations tested"}, "[4]": {"system": "integration of foreign DNA into the genome", "conditions": "calcium phosphate mediated DNA transfection; cited from earlier work"}, "in vitro [5]": {"experiment": "in vitro", "conditions": "human, pbmc"}, "in vitro [6]": {"experiment": "in vitro", "conditions": "human, t-cell line"}, "T-cell adapted HIV-1": {"system": "T-cell adapted HIV-1", "experiment": "microbe, parasite or virus in culture", "assay_type": "cell-based", "conditions": "for minimal effective concentration: Human immunodeficiency virus 1, T-cell, 336 h, read-out: Minimum Antiviral Concentration; for Therapeutic Index: T-Cell Line with T-virus; for antiviral activity (P24 antigen level in supernatant): virus T and the T-cell line, Day 14"}, "vaccinia virus": {"system": "vaccinia virus", "conditions": "BSC40 cells, 24 hours at 37°C, cited from earlier work"}, "[7]": {"system": "monocyte adapted laboratory strain of HIV", "assay_type": "cell-based, HIV-1", "conditions": "monocyte line, Day 7"}, "[8]": {"system": "phytohaemagglutinin (PHA) stimulated peripheral blood mononuclear cells (PBMC)", "experiment": "Cell toxicity assay, trypan blue exclusion (Example 6), PBMC", "conditions": "150µM; PBMC's; Days 1, 6 and 10"}, "[9]": {"system": "AZT-resistant HIV isolate", "assay_type": "cell-based, HIV-1"}, "[10]": {"system": "continuous human T-cell line", "experiment": "Cell toxicity assay, trypan blue exclusion (Example 6), T-cell line", "conditions": "150µM, Days 1, 6 and 10"}, "in vitro [11]": {"experiment": "in vitro", "conditions": "human"}, "[12]": {"conditions": "NIH3T3, NIH-3T3, G418-resistant colonies, read-out: % inhibition achieved"}, "[13]": {"conditions": "NIH3T3, NIH-3T3, G418-resistant colonies"}}, "note": "Like-named read-outs stand apart in the source and are kept apart here."}
{"smiles": "COc1ccc(C(N)=O)cc1", "note": "[4-methoxybenzamide, reference compound]", "values": [{"measurement": "inhibition at 2000 µM", "setting": "[1]; [12]", "result": 15, "unit": "%"}, {"measurement": "activity at 2000 µM", "setting": "[1]; [13]", "result": 85, "unit": "%"}, {"measurement": "inhibition of G418-resistant colony formation (in words)", "setting": "[1]", "result": "did not inhibit"}]}
{"smiles": "NC(=O)c1ccc(N)cc1", "note": "[4-aminobenzamide, reference compound]", "values": [{"measurement": "inhibition at 3000 µM", "setting": "[1]; [12]", "result": 12, "unit": "%"}, {"measurement": "activity at 3000 µM", "setting": "[1]; [13]", "result": 88, "unit": "%"}, {"measurement": "inhibition of G418-resistant colony formation (in words)", "setting": "[1]", "result": "did not inhibit"}]}
{"smiles": "COc1cccc(C(N)=O)c1", "note": "[3-methoxybenzamide]", "values": [{"measurement": "inhibition at 2000 µM", "setting": "[1]; [12]", "result": 82, "unit": "%"}, {"measurement": "activity at 2000 µM", "setting": "[1]; [13]", "result": 18, "unit": "%"}, {"measurement": "inhibition of G418-resistant colony formation (in words)", "setting": "[1]", "result": "very effective"}, {"measurement": "appearance of complete proviral DNA in the genomic DNA", "setting": "MPSV^28 [2]", "result": "inhibited"}, {"measurement": "appearance of the proviral DNA", "setting": "MPSV^28 [3]", "result": "inhibited"}, {"measurement": "minimal effective concentration", "setting": "monocyte adapted HIV-1", "result": 0.19, "unit": "µM"}, {"measurement": "Therapeutic Index", "setting": "monocyte adapted HIV-1", "result": ">15 800*"}, {"measurement": "virus production (P24 antigen level in supernatant)", "setting": "monocyte adapted HIV-1", "result": "partially inhibited virus production"}, {"measurement": "integration of foreign DNA into the genome", "setting": "[4]", "result": "blocked"}, {"measurement": "MNTC", "setting": "in vitro [5]", "result": 3, "unit": "mM"}, {"measurement": "MNTC", "setting": "in vitro [6]", "result": 3, "unit": "mM"}, {"measurement": "minimal effective concentration", "setting": "T-cell adapted HIV-1", "result": 0.19, "unit": "µM"}, {"measurement": "Therapeutic Index", "setting": "T-cell adapted HIV-1", "result": ">15 800"}, {"measurement": "antiviral activity (P24 antigen level in supernatant)", "setting": "T-cell adapted HIV-1", "result": "showed particular activity"}]}
{"smiles": "NC(=O)c1cccc(N)c1", "note": "[3-aminobenzamide]", "values": [{"measurement": "inhibition of the formation of G418 resistant colonies", "setting": "[1]; 1mM inhibitor", "result": "small degree of inhibition"}, {"measurement": "inhibition at 3000 µM", "setting": "[1]; [12]", "result": 45, "unit": "%"}, {"measurement": "activity at 3000 µM", "setting": "[1]; [13]", "result": 55, "unit": "%"}, {"measurement": "inhibition at 3000 µM", "setting": "[1]; NIH3T3, read-out: inhibition of the formation of G418 resistant colonies", "result": 50, "unit": "%"}, {"measurement": "inhibition at 5000 µM", "setting": "[1]; NIH3T3, 5mM, read-out: inhibition of the formation of G418 resistant colonies", "result": 60, "unit": "%"}, {"measurement": "inhibition of G418-resistant colony formation (in words)", "setting": "[1]", "result": "significant degree of inhibition"}, {"measurement": "integration of foreign DNA into the genome", "setting": "[4]", "result": "blocked"}]}
{"smiles": "NC(=O)c1cccc(NC=O)c1", "note": "[3-N-formylaminobenzamide]", "values": [{"measurement": "inhibition at 1000 µM", "setting": "[1]; [12]", "result": 64, "unit": "%"}, {"measurement": "activity at 1000 µM", "setting": "[1]; [13]", "result": 36, "unit": "%"}, {"measurement": "inhibition of G418-resistant colony formation (in words)", "setting": "[1]", "result": "even greater inhibition"}]}
{"smiles": "NC(=O)c1cccnc1", "note": "[nicotinamide]", "values": [{"measurement": "viral replication", "setting": "vaccinia virus; 20mM", "result": "affected"}, {"measurement": "decrease of viral replication", "setting": "vaccinia virus; 60mM", "result": "greater than 99%"}]}
{"smiles": "Nc1cccc(C(=O)O)c1", "note": "[3-aminobenzoic acid, reference compound]", "values": [{"measurement": "inhibition at 3000 µM", "setting": "[1]; [12]", "result": 10, "unit": "%"}, {"measurement": "activity at 3000 µM", "setting": "[1]; [13]", "result": 90, "unit": "%"}, {"measurement": "inhibition of G418-resistant colony formation (in words)", "setting": "[1]", "result": "did not inhibit"}]}
{"smiles": "NC(=O)c1ccc(NC=O)cc1", "note": "[4-formylaminobenzamide, reference compound]", "values": [{"measurement": "inhibition at 1000 µM", "setting": "[1]; [12]", "result": 8, "unit": "%"}, {"measurement": "activity at 1000 µM", "setting": "[1]; [13]", "result": 92, "unit": "%"}, {"measurement": "inhibition of G418-resistant colony formation (in words)", "setting": "[1]", "result": "did not inhibit"}]}
{"smiles": "Cc1cn([C@H]2C[C@H](N=[N+]=[N-])[C@@H](CO)O2)c(=O)[nH]c1=O", "note": "[AZT, 3'-azido-2',3'-dideoxythymidine, reference compound]", "values": [{"measurement": "antiviral activity (supernatant p24 antigen)", "setting": "[7]; 0.15µM", "result": "significant antiviral activity"}, {"measurement": "minimal effective concentration", "setting": "monocyte adapted HIV-1", "result": 0.007, "unit": "µM"}, {"measurement": "Therapeutic Index", "setting": "monocyte adapted HIV-1", "result": "142 900"}, {"measurement": "virus production (P24 antigen level in supernatant)", "setting": "monocyte adapted HIV-1", "result": "inhibited virus with a good dose response"}, {"measurement": "MNTC", "setting": "in vitro [5]", "result": 1, "unit": "mM"}, {"measurement": "toxicity (viable counts)", "setting": "[8]", "result": "non-toxic"}, {"measurement": "virus inhibition (supernatant p24 antigen)", "setting": "[9]", "result": "inhibited completely"}, {"measurement": "virus suppression (supernatant p24 antigen)", "setting": "[9]", "result": "did not suppress the virus"}, {"measurement": "MNTC", "setting": "in vitro [6]", "result": 1, "unit": "mM"}, {"measurement": "minimal effective concentration", "setting": "T-cell adapted HIV-1", "result": 0.007, "unit": "µM"}, {"measurement": "Therapeutic Index", "setting": "T-cell adapted HIV-1", "result": "142 900"}, {"measurement": "antiviral activity (P24 antigen level in supernatant)", "setting": "T-cell adapted HIV-1", "result": "inhibited virus with a good dose response"}, {"measurement": "toxicity (viable counts)", "setting": "[10]", "result": "non-toxic"}]}
{"smiles": "O=C1NC(CCCl)Oc2ccccc21", "note": "(stereo not drawn) [Chlorthenoxazine, chlorthenoxazine]", "values": [{"measurement": "antiviral activity (supernatant p24 antigen)", "setting": "[7]; concentrations tested 150 to 0.015µM", "result": "active and has a clear dose response"}, {"measurement": "antiviral activity (supernatant p24 antigen)", "setting": "[9]; 0.15µM, PBMC's, Day 7, no smooth dose response", "result": "possibly active"}, {"measurement": "viability at 336 h", "setting": "in vitro [11]", "result": "> 50", "unit": "%"}]}
